In patent US20230416268A1, “PYRIMIDINONE-CONTAINING 17-BETA-HYDROXYSTEROID DEHYDROGENASE TYPE 13 INHIBITORS” (ENANTA PHARMACEUTICALS, INC., priority 2022, published 2023) one finds IC50 data, which are given here for 22 molecules.

A word on the IC50: it is the concentration at which inhibition is half-maximal.

The target of this assay is Recombinant human 17β-HSD13 (Homo sapiens (Human), UniProt Q7Z5P4). The assay can be described thus: 17β-HSD13 rapid-fire mass spectrometry assay (RF/MS assay). The class given is biochemical. As to conditions: HSD17B13 80 nM, LTB4 10 μM, NAD+ 0.5 mM, RT 3 h, RF/MS readout. The protocol:
17β-HSD13 rapid-fire mass spectrometry assay (RF/MS assay). Recombinant human 17β-HSD13 was expressed and purified from sf9 cells at Charles River Labs (Saffron Walden, UK). […] The assays were quenched by adding 20 μL of 0.15% aqueous formic acid and the plates were frozen at −80° C. RF/MS analysis was performed at PureHoney Technologies (Billerica, MA) on a RapidFire RF300 system (Agilent Technologies, Inc.) coupled to an API 4000 triple quadrupole mass spectrometer (Sciex) equipped with Agilent RapidFire cartridge type A (C4). The mobile phase was 0.09% formic acid and 0.01% trifluoracetic acid in water (Buffer A) and 0.09% formic acid and 0.01% trifluoracetic acid in 80% aqueous acetonitrile (Buffer B). The RapidFire method conditions were the following: 250 ms aspirate, 3000 ms load/desalt, 4000 ms elute, and 500 ms re-equilibrate. RF-MS/MS was performed in negative polarity (−4500 V), the source temperature was 650° C., and gas 1 and gas 2 settings for nitrogen were set to 50. The curtain gas and collision gas were also nitrogen and were set to 20 and 12, respectively.
Data Analysis. 17β-HSD13 enzyme activity was measured as percent conversion of extracted ion counts and normalized to high and low controls to determine percent residual activity at various concentrations of test compounds. Data were fitted to normalized activity (variable slope) versus concentration fit in GraphPad Prism 7 to determine IC50. All experiments were run in duplicates.

Recombinant human 17β-HSD13, sequence (Q7Z5P4 20-300): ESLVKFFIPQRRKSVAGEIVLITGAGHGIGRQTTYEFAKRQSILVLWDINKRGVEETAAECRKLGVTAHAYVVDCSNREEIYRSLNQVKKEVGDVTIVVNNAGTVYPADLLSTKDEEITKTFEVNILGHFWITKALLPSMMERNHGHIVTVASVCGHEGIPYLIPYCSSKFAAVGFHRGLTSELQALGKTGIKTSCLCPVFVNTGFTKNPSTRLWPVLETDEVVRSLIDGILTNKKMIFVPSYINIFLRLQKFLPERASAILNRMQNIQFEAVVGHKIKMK

Regarding `COc1ccc(-c2nc3sc4c(O)cccc4c3c(=O)n2Cc2cc(C)no2)c(C2CC2)c1` [Example 66], the IC50 is < 100 nM. For the molecule `COc1ccc(-c2nc3sc4c(O)cccc4c3c(=O)n2Cc2cnc(C)o2)c(C2CC2)c1` [Example 67], the IC50 was < 100 nM.

Turning to `O=c1c2c(nc(-c3ccc(F)cc3C3CC3)n1Cc1ccno1)sc1c(O)cccc12` [Example 68], the IC50 is < 100 nM.

Consider `O=c1c2c(nc(-c3ccc(F)cc3C3CC3)n1Cc1cnco1)sc1c(O)cccc12` [Example 69], for which the IC50 is < 100 nM. With `O=c1c2c(nc(-c3ccc(F)cc3C3CC3)n1Cc1cnoc1)sc1c(O)cccc12` [Example 70], the IC50 is < 100 nM. The result for `COc1ccc(-c2nc3sc4c(OP(=O)(O)O)cccc4c3c(=O)n2Cc2nnn(C)n2)c(C2CC2)c1` [Example 71] reads 1000 to 10000 nM. With `O=c1c2c(nc(-c3ccc(F)cc3C3CC3)n1CCn1ccc(C3CC3)n1)sc1c(O)cccc12` [Example 72] the figure was 100 to 1000 nM. Take `Cc1cc(Cn2c(-c3ccc(F)cc3C3CC3)nc3sc4c(O)cccc4c3c2=O)on1` [Example 73]: the IC50 fell in the range of 1000 to 10000 nM.

As for `Cc1ncc(Cn2c(-c3ccc(F)cc3C3CC3)nc3sc4c(O)cccc4c3c2=O)o1` [Example 75], the half-maximal inhibitory concentration (IC50) was < 100 nM. With `O=c1c2c(nc(-c3ccc(F)cc3C3CC3)n1Cc1cc(C(F)(F)F)no1)sc1c(O)cccc12` [Example 77] the figure was < 100 nM; with `O=c1c2c(nc(-c3ccc(F)cc3C3CC3)n1CCn1cnnc1)sc1c(O)cccc12` [Example 78], 100 to 1000 nM; with `O=c1c2c(nc(-c3ccc(F)cc3C3CC3)n1CCn1nccn1)sc1c(O)cccc12` [Example 79], < 100 nM.

As to `O=c1c2c(nc(-c3ccc(F)cc3C3CC3)n1CCn1ccnn1)sc1c(O)cccc12` [Example 80], the concentration for half-maximal inhibition (IC50) is < 100 nM. For the molecule `O=c1c2c(nc(-c3ccc(F)cc3C3CC3)n1CCn1cnnn1)sc1c(O)cccc12` [Example 81], the IC50 was < 100 nM.

As to `CC(C)Oc1ccc(-c2nc3sc4c(O)cccc4c3c(=O)n2Cc2ccno2)c(C2CC2)c1` [Example 82], the IC50 is < 100 nM. As for `CC(C)Oc1ccc(-c2nc3sc4c(O)cccc4c3c(=O)n2Cc2cnco2)c(C2CC2)c1` [Example 83], the IC50 was < 100 nM.

Turning to `O=c1c2c(nc(-c3ccc(F)cc3C3CC3)n1CCCc1nccs1)sc1c(O)cccc12` [Example 84], the IC50 is < 100 nM. `O=c1c2c(nc(-c3ccc(F)cc3C3CC3)n1CCCc1nc3ccccc3s1)sc1c(O)cccc12` [Example 85]: the 50% inhibitory concentration (IC50) was < 100 nM. With `O=c1c2c(nc(-c3ccc(F)cc3C3CC3)n1CCCc1nc3ccccc3o1)sc1c(O)cccc12` [Example 86] the figure was < 100 nM; with `COc1ccc(-c2nc3sc4c(OC(=O)C(C)C)cccc4c3c(=O)n2Cc2cnco2)c(C2CC2)c1` [Example 88], 1000 to 10000 nM.

As for `COc1ccc(-c2nc3sc4c(OC(=O)C(C)(C)C)cccc4c3c(=O)n2Cc2cnco2)c(C2CC2)c1` [Example 89], the 50% inhibitory concentration (IC50) is > 10000 nM. In the case of `COc1ccc(-c2nc3sc4c(O)ccc(Cl)c4c3c(=O)n2Cc2cnco2)c(C2CC2)c1` [Example 91], the concentration for half-maximal inhibition (IC50) was < 100 nM.
